According to patent publication US20200354348A1, “SEMISYNTHETIC AURONES AND METHODS OF USE THEREOF” (University of Kentucky Research Foundation, priority 2018, published 2020):
Structures can show the parent of a compound that is named as a salt.

melting point | Structure (SMILES)
249 to 251 °C | O=C1/C(=C/c2ccc3ccccc3n2)Oc2cc(O)ccc21 [Aurone 3e, (2Z)-6-Hydroxy-2-(quinolin-2-ylmethylene)-1-benzofuran-3(2H)-one]
211 to 213 °C | CCn1cc(/C=C2\Oc3cc(OCc4c(Cl)cccc4Cl)ccc3C2=O)c2cc(OC)ccc21 [Aurone 4o, (2Z)-6-[(2,6-Dichlorobenzyl)oxy]-2-[(1-ethyl-5-methoxy-1H-indol-3-yl)methylene]-1-benzofuran-3(2H)-one]
293 to 295 °C | Cc1c(O)ccc2c1O/C(=C\c1cn(C)c3ccccc13)C2=O [Aurone 3n, (2Z)-6-Hydroxy-7-methyl-2-[(1-methyl-1H-indol-3-yl)methylene]-1-benzofuran-3(2H)-one]
301 to 303 °C | COc1ccc2c(c1)c(/C=C1\Oc3cc(O)ccc3C1=O)cn2C [Aurone 3k, (2Z)-6-Hydroxy-2-[(5-methoxy-1-methyl-1H-indol-3-yl)methylene]-1-benzofuran-3(2H)-one]
225 to 227 °C | Cn1cc(/C=C2\Oc3cc(OCc4c(F)cccc4Cl)ccc3C2=O)c2ccccc21 [Aurone 4h, (2Z)-6-[(2-Chloro-6-fluorobenzyl)oxy]-2-[(1-methyl-1H-indol-3-yl)methylene]-1-benzofuran-3(2H)-one]
241 to 243 °C | Cn1cc(/C=C2\Oc3cc(OCc4ccccc4F)ccc3C2=O)c2ccccc21 [Aurone 4d, (2Z)-6-[(2-Fluorobenzyl)oxy]-2-[(1-methyl-1H-indol-3-yl)methylene]-1-benzofuran-3(2H)-one]
184 to 186 °C | CCN(CC)c1ccc(/C=C2\Oc3cc(OCc4cc(F)ccc4F)ccc3C2=O)c(OC)c1 [Aurone 4t, (2Z)-6-[(2,5-Difluorobenzyl)oxy]-2-[4-(diethylamino)-2-methoxybenzylidene]-1-benzofuran-3(2H)-one]
> 220 °C | O=C1/C(=C/c2nccc3ccccc23)Oc2cc(O)ccc21 [Aurone 3d, (2Z)-6-Hydroxy-2-(isoquinolin-1-ylmethylene)-1-benzofuran-3(2H)-one]
> 220 °C | CCN(CC)c1ccc(/C=C2\Oc3cc(O)ccc3C2=O)c(OC)c1 [Aurone 2f, (2Z)-2-[4-(Diethylamino)-2-methoxybenzylidene]-6-hydroxy-1-benzofuran-3(2H)-one]
> 220 °C | CN1CCN(c2ccc(/C=C3\Oc4cc(O)ccc4C3=O)cc2)CC1 (as salt: hydrochloride)
> 220 °C | CN(C)c1ccc(/C=C2\Oc3cc(O)ccc3C2=O)c(Cl)c1 [Aurone 2e, (2Z)-2-[2-Chloro-4-(dimethylamino)benzylidene]-6-hydroxy-1-benzofuran-3(2H)-one]
200 to 202 °C | COc1ccc2c(c1)c(/C=C1\Oc3cc(OCc4c(F)cccc4Cl)ccc3C1=O)cn2C [Aurone 4k, (2Z)-6-[(2-Chloro-6-fluorobenzyl)oxy]-2-[(5-methoxy-1-methyl-1H-indol-3-yl)methylene]-1-benzofuran-3(2H)-one]
233 to 235 °C | COc1ccc2c(c1)c(/C=C1\Oc3cc(OCc4c(Cl)cccc4Cl)ccc3C1=O)cn2C [Aurone 4l, (2Z)-6-[(2,6-Dichlorobenzyl)oxy]-2-[(5-methoxy-1-methyl-1H-indol-3-yl)methylene]-1-benzofuran-3(2H)-one]
280 to 282 °C | O=C1/C(=C/c2c[nH]c3ccccc23)Oc2cc(O)ccc21 [Aurone 3i, (2Z)-6-Hydroxy-2-(1H-indol-3-ylmethylene)-1-benzofuran-3(2H)-one]
> 220 °C | Cn1cc(/C=C2\Oc3cc(OCc4c(F)cccc4F)ccc3C2=O)c2ccccc21 [Aurone 4f, (2Z)-6-[(2,6-Difluorobenzyl)oxy]-2-[(1-methyl-1H-indol-3-yl)methylene]-1-benzofuran-3(2H)-one]
255 to 257 °C | O=C1/C(=C/c2cccnc2)Oc2cc(O)ccc21 [Aurone 3b, (2Z)-6-Hydroxy-2-(pyridin-3-ylmethylene)-1-benzofuran-3(2H)-one]
> 220 °C | CN(C)c1ccc(/C=C2\Oc3cc(OCc4ccccc4Cl)ccc3C2=O)c(Cl)c1 [Aurone 4s, (2Z)-6-[(2-Chlorobenzyl)oxy]-2-[2-chloro-4-(dimethylamino)benzylidene]-1-benzofuran-3(2H)-one]
